Experiments:
Type in all cases: biochemical
Details in all cases: ADP-Glo SIK kinase assay
[1] = biological target: T1, SIK2 (Homo sapiens, UniProt Q9H0K1); test: ADP-Glo kinase assay, SIK2
T1 construct: purchased ThermoFisher Scientific PV4792
Summary of the method: (§1)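 Enzyme–substrate mix was started with ATP and incubated 120 min at RT. ADP formed was quantified by ADP-Glo: 40 min ATP depletion, then 30 min detection reagent converting ADP to ATP for luciferase luminescence, which rises with kinase activity. Controls: 1% DMSO and 10 μM staurosporine (final).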

[2] = biological target: T2, SIK1 (Homo sapiens, UniProt P57059); test: ADP-Glo kinase assay, SIK1
T2 construct: purchased Carna Biosciences 02-131
T2 sequence (P57059 whole entry): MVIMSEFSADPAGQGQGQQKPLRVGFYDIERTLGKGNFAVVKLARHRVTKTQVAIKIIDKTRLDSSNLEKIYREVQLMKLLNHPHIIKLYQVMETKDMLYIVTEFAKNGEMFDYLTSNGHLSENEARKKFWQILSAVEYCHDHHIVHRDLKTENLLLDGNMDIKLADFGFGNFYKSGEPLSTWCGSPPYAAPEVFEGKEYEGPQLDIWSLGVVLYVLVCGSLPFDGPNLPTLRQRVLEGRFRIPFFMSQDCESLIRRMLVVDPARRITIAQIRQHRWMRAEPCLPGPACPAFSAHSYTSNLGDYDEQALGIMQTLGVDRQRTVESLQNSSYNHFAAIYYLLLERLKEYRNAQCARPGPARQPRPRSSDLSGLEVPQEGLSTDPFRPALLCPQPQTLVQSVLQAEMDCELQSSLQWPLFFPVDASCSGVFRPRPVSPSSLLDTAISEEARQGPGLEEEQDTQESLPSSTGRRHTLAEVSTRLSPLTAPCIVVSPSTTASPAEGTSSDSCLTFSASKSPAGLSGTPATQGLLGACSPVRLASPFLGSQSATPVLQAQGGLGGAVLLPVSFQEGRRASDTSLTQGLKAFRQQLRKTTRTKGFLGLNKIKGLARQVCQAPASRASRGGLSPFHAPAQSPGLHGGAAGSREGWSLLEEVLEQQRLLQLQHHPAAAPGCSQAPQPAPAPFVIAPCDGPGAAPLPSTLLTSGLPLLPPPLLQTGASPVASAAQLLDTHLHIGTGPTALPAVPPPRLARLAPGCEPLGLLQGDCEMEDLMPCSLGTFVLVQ
Summary of the method: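 ADP-Glo, RT throughout. Enz/substrate + ATP, 120 min; ADP-Glo reagent 40 min (ATP depletion); detection reagent 30 min; luminescence read. Neg ctrl 1% DMSO, pos ctrl 10 μM staurosporine, final concs.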

[3] = biological target: T3, SIK3 (Homo sapiens, UniProt Q9Y2K2); test: ADP-Glo kinase assay, SIK3
T3 construct: purchased SignalChem S12-11G-100
T3 sequence (Q9Y2K2 whole entry): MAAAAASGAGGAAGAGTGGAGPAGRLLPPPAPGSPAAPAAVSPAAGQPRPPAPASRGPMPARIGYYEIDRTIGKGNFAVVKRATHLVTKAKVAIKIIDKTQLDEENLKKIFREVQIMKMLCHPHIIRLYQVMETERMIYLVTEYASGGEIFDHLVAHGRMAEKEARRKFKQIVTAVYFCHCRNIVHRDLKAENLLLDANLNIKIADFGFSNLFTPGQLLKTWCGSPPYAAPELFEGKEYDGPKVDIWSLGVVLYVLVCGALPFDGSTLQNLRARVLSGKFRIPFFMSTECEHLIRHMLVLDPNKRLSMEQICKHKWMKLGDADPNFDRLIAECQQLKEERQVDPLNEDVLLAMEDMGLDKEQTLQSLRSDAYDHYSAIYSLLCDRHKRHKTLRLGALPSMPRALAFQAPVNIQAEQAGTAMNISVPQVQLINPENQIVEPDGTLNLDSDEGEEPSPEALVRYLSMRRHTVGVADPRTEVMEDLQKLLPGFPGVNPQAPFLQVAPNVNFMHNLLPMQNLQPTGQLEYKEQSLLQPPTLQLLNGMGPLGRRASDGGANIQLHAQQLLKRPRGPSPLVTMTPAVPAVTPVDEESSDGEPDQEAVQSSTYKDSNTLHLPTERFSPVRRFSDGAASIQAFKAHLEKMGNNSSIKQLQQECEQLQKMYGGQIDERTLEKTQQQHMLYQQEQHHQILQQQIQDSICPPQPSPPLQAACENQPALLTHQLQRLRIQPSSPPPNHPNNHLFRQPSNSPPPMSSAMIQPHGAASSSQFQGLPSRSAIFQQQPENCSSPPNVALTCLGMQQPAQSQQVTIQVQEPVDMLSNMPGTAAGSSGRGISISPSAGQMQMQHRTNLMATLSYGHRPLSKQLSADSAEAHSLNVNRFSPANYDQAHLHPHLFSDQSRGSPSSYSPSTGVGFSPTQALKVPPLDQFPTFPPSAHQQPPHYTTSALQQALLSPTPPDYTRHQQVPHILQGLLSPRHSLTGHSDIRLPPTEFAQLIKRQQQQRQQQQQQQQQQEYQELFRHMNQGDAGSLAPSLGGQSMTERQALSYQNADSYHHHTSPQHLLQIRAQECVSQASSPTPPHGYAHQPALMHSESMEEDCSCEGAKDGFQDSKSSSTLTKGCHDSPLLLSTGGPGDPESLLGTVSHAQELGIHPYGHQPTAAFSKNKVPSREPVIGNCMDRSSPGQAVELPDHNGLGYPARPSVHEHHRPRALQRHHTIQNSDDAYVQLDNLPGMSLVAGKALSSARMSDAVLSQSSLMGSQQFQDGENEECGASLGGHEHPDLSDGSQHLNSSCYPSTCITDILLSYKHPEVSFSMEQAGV
Summary of the method: as §1

T1 sequence (Q9H0K1 whole entry): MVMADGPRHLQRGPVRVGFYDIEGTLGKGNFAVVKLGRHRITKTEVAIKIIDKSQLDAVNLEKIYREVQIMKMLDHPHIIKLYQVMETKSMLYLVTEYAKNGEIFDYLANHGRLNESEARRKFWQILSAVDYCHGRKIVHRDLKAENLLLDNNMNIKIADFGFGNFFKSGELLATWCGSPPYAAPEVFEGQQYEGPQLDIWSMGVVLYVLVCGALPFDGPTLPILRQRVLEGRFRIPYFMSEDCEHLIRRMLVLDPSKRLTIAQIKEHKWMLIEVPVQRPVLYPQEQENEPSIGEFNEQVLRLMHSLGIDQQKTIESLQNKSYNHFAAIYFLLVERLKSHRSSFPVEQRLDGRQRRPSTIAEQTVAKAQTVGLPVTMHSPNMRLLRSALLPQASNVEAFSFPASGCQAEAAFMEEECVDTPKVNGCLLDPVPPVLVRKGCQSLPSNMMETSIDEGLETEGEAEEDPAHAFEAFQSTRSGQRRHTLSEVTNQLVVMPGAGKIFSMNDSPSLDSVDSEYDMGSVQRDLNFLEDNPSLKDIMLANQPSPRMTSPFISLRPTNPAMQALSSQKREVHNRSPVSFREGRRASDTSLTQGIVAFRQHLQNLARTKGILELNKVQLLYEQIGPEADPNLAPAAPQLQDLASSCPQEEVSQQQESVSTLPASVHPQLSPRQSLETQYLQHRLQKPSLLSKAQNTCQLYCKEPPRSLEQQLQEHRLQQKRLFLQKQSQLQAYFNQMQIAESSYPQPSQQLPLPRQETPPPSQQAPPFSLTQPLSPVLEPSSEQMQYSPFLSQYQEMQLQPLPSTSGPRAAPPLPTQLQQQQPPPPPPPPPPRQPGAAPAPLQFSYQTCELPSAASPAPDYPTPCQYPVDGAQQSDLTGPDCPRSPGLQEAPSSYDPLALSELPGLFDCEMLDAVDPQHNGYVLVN

Structure (SMILES)	IC50 [1] [nM]	IC50 [2] [nM]	IC50 [3] [nM]
COc1cc(-c2cnc3cc(OC(C)(C)C#N)ccn23)cc(OC(F)F)c1C(=O)NC1CC1 [Cpd 263, 4-[7-(1-cyano-1-methyl-ethoxy)imidazo[1,2-a]pyridin-3-yl]-N-cyclopropyl-2-(difluoromethoxy)-6-methoxy-benzamide]	> 500	> 500	10 to 100
CNC(C)(C)COc1ccn2c(-c3cc(OC)c(C(=O)NC4CC4)c(OC(F)F)c3)cnc2c1 [Cpd 153, N-cyclopropyl-2-(difluoromethoxy)-6-methoxy-4-[7-[2-methyl-2-(methylamino)propoxy]imidazo[1,2-a]pyridin-3-yl]benzamide]	0.01 to 10	100 to 500	0.01 to 10
COc1cc(-c2cnc3cc(OCC4(C)CN(C(=O)OC(C)(C)C)C4)ccn23)cc(OC(F)F)c1C(=O)NC1CC1 [Cpd 188, tert-butyl 3-[[3-[4-(cyclopropylcarbamoyl)-3-(difluoromethoxy)-5-methoxy-phenyl]imidazo[1,2-a]pyridin-7-yl]oxymethyl]-3-methyl-azetidine-1-carboxylate]	0.01 to 10	10 to 100	0.01 to 10
COc1cc(-c2cnc3cc(OCC(N)C4CCOCC4)ccn23)cc(OC(F)F)c1C(=O)NC1CC1 (stereo not drawn) [compound 135, 4-[7-(2-amino-2-tetrahydropyran-4-yl-ethoxy)imidazo[1,2-a]pyridin-3-yl]-N-cyclopropyl-2-(difluoromethoxy)-6-methoxy-benzamide]	0.01 to 10	10 to 100	0.01 to 10
CCOCCOc1ccn2c(-c3cc(OC)c(C(=O)NC4CC4)c(OC(F)F)c3)cnc2c1 [compound 72, N-cyclopropyl-2-(difluoromethoxy)-4-[7-(2-ethoxyethoxy)imidazo [1,2-a]pyridin-3-yl]-6-methoxy-benzamide]	0.01 to 10	10 to 100	0.01 to 10
COc1cc(-c2cnc3cc(OCCN4CC5CCC(C4)O5)ccn23)cc(OC(F)F)c1C(=O)NC1CC1 [compound 195, N-cyclopropyl-2-(difluoromethoxy)-6-methoxy-4-[7-[2-(8-oxa-3-azabicyclo [3.2.1]octan-3-yl)ethoxy]imidazo[1,2-a]pyridin-3-yl]benzamide]	0.01 to 10	10 to 100	0.01 to 10
COc1cc(-c2cnc3cc(OCc4noc(C)n4)ccn23)cc(OC(F)F)c1C(=O)NC1CC1 [compound 231, N-cyclopropyl-2-(difluoromethoxy)-6-methoxy-4-[7-[(5-methyl-1,2,4-oxadiazol-3-yl)methoxy]imidazo[1,2-a]pyridin-3-yl]benzamide]	0.01 to 10	10 to 100	0.01 to 10
COc1cc(-c2cnc3cc(OCC4CCC(F)(F)C4)ccn23)cc(OC(F)F)c1C(=O)NC1CC1 (stereo not drawn) [compound 75, N-cyclopropyl-4-[7-[(3,3-difluorocyclopentyl)methoxy]imidazo[1,2-a]pyridin-3-yl]-2-(difluoromethoxy)-6-methoxy-benzamide]	0.01 to 10	0.01 to 10	0.01 to 10
COc1cc(-c2cnc3cc(OCC4(C)COC4)ccn23)cc(OC(F)F)c1C(=O)NC1CC1 [compound 89, N-cyclopropyl-2-(difluoromethoxy)-6-methoxy-4-[7-[(3-methyloxetan-3-yl)methoxy]imidazo[1,2-a]pyridin-3-yl]benzamide]	0.01 to 10	10 to 100	0.01 to 10
COc1cc(-c2cnc3cc(OCc4ccccc4)ccn23)cc(OC(F)F)c1C(=O)NC1CC1 [compound 68, 4-(7-benzyloxyimidazo[1,2-a]pyridin-3-yl)-N-cyclopropyl-2-(difluoromethoxy)-6-methoxy-benzamide]	0.01 to 10	0.01 to 10	0.01 to 10
COc1cc(-c2cnc3cc(OCC4CNC(=O)C4)ccn23)cc(OC(F)F)c1C(=O)NC1CC1 (stereo not drawn) [compound 102, N-cyclopropyl-2-(difluoromethoxy)-6-methoxy-4-[7-[(5-oxopyrrolidin-3-yl)methoxy]imidazo[1,2-a]pyridin-3-yl]benzamide]	0.01 to 10	10 to 100	0.01 to 10
CCOc1cc(-c2cnc3cc(OCCN(C)C)ccn23)cc2c1C(=O)N(CC(F)(F)F)CC2 [compound 140, 6-[7-[2-(dimethylamino)ethoxy]imidazo[1,2-a]pyridin-3-yl]-8-ethoxy-2-(2,2,2-trifluoroethyl)-3,4-dihydroisoquinolin-1-one]	10 to 100	> 500	100 to 500
COc1cc(-c2cnc3cc(OCC4CCN4)ccn23)cc(OC(F)F)c1C(=O)NC1CC1 (stereo not drawn) [Cpd 109, 4-[7-(azetidin-2-ylmethoxy)imidazo[1,2-a]pyridin-3-yl]-N-cyclopropyl-2-(difluoromethoxy)-6-methoxy-benzamide]	0.01 to 10	10 to 100	0.01 to 10
COc1cc(-c2cnc3cc(OCc4ccccc4)ncn23)cc(OC(F)F)c1C(=O)NC1CC1 [Cpd 159, 4-(7-benzyloxyimidazo[1,2-c]pyrimidin-3-yl)-N-cyclopropyl-2-(difluoromethoxy)-6-methoxy-benzamide]	10 to 100	100 to 500	0.01 to 10
COc1cc(-c2cnc3cc(OCCN(CC(F)F)C4CC4)ccn23)cc(OC(F)F)c1C(=O)NC1CC1 [compound 235, N-cyclopropyl-4-[7-[2-[cyclopropyl (2,2-difluoroethyl)amino]ethoxy]imidazo [1,2-a]pyridin-3-yl]-2-(difluoromethoxy)-6-methoxy-benzamide]	0.01 to 10	0.01 to 10	0.01 to 10
COc1cc(-c2cnc3cc(OCC(C)(C)N4CCOCC4)ccn23)cc(OC(F)F)c1C(=O)NC1CC1 [compound 11, N-cyclopropyl-2-(difluoromethoxy)-6-methoxy-4-[7-(2-methyl-2-morpholino-propoxy)imidazo[1,2-a]pyridin-3-yl]benzamide]	10 to 100	100 to 500	0.01 to 10
Cc1cc(-c2cnc3cc(OCCN4CCOCC4)ccn23)cc(OC(F)F)c1C(=O)NCC(F)(F)F [compound 243, 2-(difluoromethoxy)-6-methyl-4-[7-(2-morpholinoethoxy)imidazo[1,2-a]pyridin-3-yl]-N-(2,2,2-trifluoroethyl)benzamide]	10 to 100	> 500	10 to 100
COc1cc(-c2cnc3cc(OCCCN4CC(C(=O)OC(C)(C)C)C4)ccn23)cc(OC(F)F)c1C(=O)NC1CC1 [compound 391, tert-butyl 1-[3-[3-[4-(cyclopropylcarbamoyl)-3-(difluoromethoxy)-5-methoxy-phenyl]imidazo[1,2-a]pyridin-7-yl]oxypropyl]azetidine-3-carboxylate]	0.01 to 10	10 to 100	0.01 to 10
